Laboratory results as given in patent publication US7608619B2, “Substituted oxazole compounds with analgesic activity” (Gruenenthal GmbH, priority 2005, dated 2009).

These molecules were tested against T1, human μ-opiate receptor (Homo sapiens, UniProt P35372) (assay: Affinity for the human μ-opiate receptor ([3H]-naloxone displacement, SPA, CHO-K1 membrane preparation)). Settings: test substance 1 μmole/l; displacement of 1 nmole/l [3H]-naloxone; percentage inhibition of the specific binding.
T1 construct: purchased Nen company, Zaventem, Belgium RB-HOM; host or cells: CHO-K1 cells (membrane preparation)
T1 sequence (P35372 whole entry): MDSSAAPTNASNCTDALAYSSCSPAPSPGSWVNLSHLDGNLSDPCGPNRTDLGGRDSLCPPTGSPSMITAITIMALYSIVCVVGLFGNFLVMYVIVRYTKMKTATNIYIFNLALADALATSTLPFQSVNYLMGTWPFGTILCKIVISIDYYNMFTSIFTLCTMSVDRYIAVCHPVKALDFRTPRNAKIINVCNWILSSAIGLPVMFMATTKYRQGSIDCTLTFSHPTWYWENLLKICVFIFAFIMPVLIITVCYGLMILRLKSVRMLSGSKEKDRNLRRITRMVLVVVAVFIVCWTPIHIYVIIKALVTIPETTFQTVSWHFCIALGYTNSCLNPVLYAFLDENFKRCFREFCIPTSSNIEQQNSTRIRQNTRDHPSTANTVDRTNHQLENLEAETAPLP
How it was run: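 [3H]-naloxone (1 nmol/l) displacement by SPA with WGA beads, using membranes of CHO-K1 cells expressing the receptor, in 50 mmol/l Tris-HCl with 0.05% azide and 0.06% BSA; 90 min at room temperature. Non-specific binding defined with 25 μmol/l naloxone. Value is % inhibition of specific binding at 1 μmol/l test compound.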
With CN(CCc1ccccc1)c1oc(C(CC2CCC(C(c3ccc(F)cc3)N(C)C)CC2)N(C)c2ccccc2)nc1Cc1ccccc1 (stereo not drawn) [compound 102, {4-benzyl-2-[2-{4-[dimethylamino-(4-fluorophenyl)-methyl]-cyclohexyl}-1-(methylphenylamine)-ethyl]-oxazol-5-yl}-methylphenethylamine] the “μ-opioid receptor, % inhibition [1 μM]” value was 77%. CCN(CC)c1oc(C(CC2CCC(C(c3ccc(F)cc3)N(C)C)CC2)N(C)c2ccccc2)nc1Cc1ccccc1 (stereo not drawn) [compound 103, {4-benzyl-2-[2-{4-[dimethylamino-(4-fluorophenyl)-methyl]-cyclohexyl}-1-(methylphenylamine)-ethyl]-oxazol-5-yl}-diethylamine] was tested, and the “μ-opioid receptor, % inhibition [1 μM]” value was 79%.

Same assay, conditions: test substance 1 μmole/l; displacement of 1 nmole/l [3H]-naloxone; percentage inhibition of the specific binding; read-out: μ-opioid receptor, % inhibition [1 μM]
For CN(CCc1ccccc1)c1oc(C(CC2CCC(C(c3ccc(Cl)cc3)N(C)C)CC2)N2CCN(Cc3ccccc3)CC2)nc1Cc1ccccc1 (stereo not drawn) [compound 93, [4-Benzyl-2-(1-(4-benzylpiperazin-1-yl)-2-{4-[(4-chlorophenyl)-dimethylaminomethyl]-cyclohexyl}-ethyl)-oxazol-5-yl]-methylphenethyl-amine], the inhibition at 1 µM was 66%. Work on CCN(CC)c1oc(C(CC2CCC(C(c3ccc(Cl)cc3)N(C)C)CC2)N2CCN(Cc3ccccc3)CC2)nc1Cc1ccccc1 (stereo not drawn) [compound 94, [4-benzyl-2-(1-(4-benzylpiperazin-1-yl)-2-{4-[(4-chlorophenyl)-dimethylaminomethyl]-cyclohexyl}-ethyl)-oxazol-5-yl]-diethylamine] yielded an inhibition at 1 µM of 74%. Work on CN(CCc1ccccc1)c1oc(C(CC2CCC(C(c3ccc(F)cc3)N(C)C)CC2)N2CCCCC2)nc1Cc1ccccc1 (stereo not drawn) [compound 95, [4-benzyl-2-(2-{4-[dimethylamino-(4-fluorophenyl)-methyl]-cyclohexyl}-1-piperidin-1-yl-ethyl)-oxazol-5-yl]-methylphenethylamine] yielded an inhibition at 1 µM of 65%. CCN(CC)C(CC1CCC(C(c2ccc(F)cc2)N(C)C)CC1)c1nc(Cc2ccccc2)c(N2CC(C)CC(C)C2)o1 (stereo not drawn) [compound 96, (1-[4-benzyl-5-(3,5-dimethylpiperidin-1-yl)-oxazol-2-yl]-2-{4-[dimethylamino-(4-fluorophenyl)-methyl]-cyclohexyl}-ethyl)-diethylamine] showed an inhibition at 1 µM of 80%. Molecule CCN(CC)C(CC1CCC(C(c2ccc(F)cc2)N(C)C)CC1)c1nc(Cc2ccccc2)c(N(C)CCc2ccccc2)o1 (stereo not drawn) [compound 97, [4-benzyl-2-(1-diethylamino-2-{4-[dimethylamino-(4-fluorophenyl)-methyl]-cyclohexyl}-ethyl)-oxazol-5-yl]-methylphenethylamine] has an inhibition at 1 µM of 85%. In the case of CCN(CC)c1oc(C(CC2CCC(C(c3ccc(F)cc3)N(C)C)CC2)N(CC)CC)nc1Cc1ccccc1 (stereo not drawn) [compound 98, [4-benzyl-2-(1-diethylamino-2-{4-[dimethylamino-(4-fluorophenyl)-methyl]-cyclohexyl}-ethyl)-oxazol-5-yl]-diethylamine], the inhibition at 1 µM is reported as 77%. With CCN(CC)C(CC1CCC(C(c2ccc(F)cc2)N(C)C)CC1)c1nc(Cc2ccccc2)c(N2CCSCC2)o1 (stereo not drawn) [compound 99, (1-(4-benzyl-5-thiomorpholin-4-yl-oxazol-2-yl)-2-{4-[dimethylamino-(4-fluorophenyl)-methyl]-cyclohexyl}-ethyl)-diethylamine] the inhibition at 1 µM was 62%. CCN(CC)C(CC1CCC(C(c2ccc(F)cc2)N(C)C)CC1)c1nc(Cc2ccccc2)c(N2CCCC(C)C2)o1 (stereo not drawn) [compound 100, (1-[4-benzyl-5-(3-methylpiperidin-1-yl)-oxazol-2-yl]-2-{4-[dimethylamino-(4-fluorophenyl)-methyl]-cyclohexyl}-ethyl)-diethylamine] gave an inhibition at 1 µM of 86%. CC1CC(C)CN(c2oc(C(CC3CCC(C(c4ccc(F)cc4)N(C)C)CC3)N(C)c3ccccc3)nc2Cc2ccccc2)C1 (stereo not drawn) [compound 101, (1-[4-benzyl-5-(3,5-dimethylpiperidin-1-yl)-oxazol-2-yl]-2-{4-[dimethylamino-(4-fluorophenyl)-methyl]-cyclohexyl}-ethyl)-methylphenylamine] showed an inhibition at 1 µM of 68%. Molecule CN(C)C(c1ccc(F)cc1)C1CCC(CC(c2nc(Cc3ccccc3)c(N3CCSCC3)o2)N(C)c2ccccc2)CC1 (stereo not drawn) [compound 104, (1-(4-benzyl-5-thiomorpholin-4-yl-oxazol-2-yl)-2-{4-[dimethylamino-(4-fluorophenyl)-methyl]-cyclohexyl}-ethyl)-methylphenylamine] has an inhibition at 1 µM of 89%. CC1CCCN(c2oc(C(CC3CCC(C(c4ccc(F)cc4)N(C)C)CC3)N(C)c3ccccc3)nc2Cc2ccccc2)C1 (stereo not drawn) [compound 105, (1-[4-benzyl-5-(3-methylpiperidin-1-yl)-oxazol-2-yl]-2-{4-[dimethylamino-(4-fluorophenyl)-methyl]-cyclohexyl}-ethyl)-methylphenylamine] was tested, and the inhibition at 1 µM was 71%. For CC1CCCN(c2oc(C(CC3CCC(C(c4ccc(F)cc4)N(C)C)CC3)N3CCN(Cc4ccccc4)CC3)nc2Cc2ccccc2)C1 (stereo not drawn) [compound 106, [{4-[2-[4-benzyl-5-(3-methylpiperidin-1-yl)-oxazol-2-yl]-2-(4-benzyl-piperazin-1-yl)-ethyl]-cyclohexyl}-(4-fluorophenyl)-methyl]-dimethylamine], the inhibition at 1 µM was 61%. For CC1CC(C)CN(c2oc(C(CC3CCC(C(c4cccs4)N(C)C)CC3)N3CCCCC3)nc2Cc2ccccc2)C1 (stereo not drawn) [compound 107, [(4-{2-[4-benzyl-5-(3,5-dimethylpiperidin-1-yl)-oxazol-2-yl]-2-piperidin-1-yl-ethyl}-cyclohexyl)-thiophen-2-yl-methyl]-dimethylamine], the inhibition at 1 µM was 84%. Work on CN(CCc1ccccc1)c1oc(C(CC2CCC(C(c3cccs3)N(C)C)CC2)N2CCCCC2)nc1Cc1ccccc1 (stereo not drawn) [compound 108, (4-benzyl-2-{2-[4-(dimethylaminothiophen-2-yl-methyl)-cyclohexyl]-1-piperidin-1-yl-ethyl}-oxazol-5-yl)-methylphenethylamine] yielded an inhibition at 1 µM of 88%. CCN(CC)c1oc(C(CC2CCC(C(c3cccs3)N(C)C)CC2)N2CCCCC2)nc1Cc1ccccc1 (stereo not drawn) [compound 109, (4-benzyl-2-{2-[4-(dimethylaminothiophen-2-yl-methyl)-cyclohexyl]-1-piperidin-1-yl-ethyl}-oxazol-5-yl)-diethylamine] showed an inhibition at 1 µM of 98%. In the case of CN(C)C(c1cccs1)C1CCC(CC(c2nc(Cc3ccccc3)c(N3CCSCC3)o2)N2CCCCC2)CC1 (stereo not drawn) [compound 110, ({4-[2-(4-benzyl-5-thiomorpholin-4-yl-oxazol-2-yl)-2-piperidin-1-yl-ethyl]-cyclohexyl}-thiophen-2-yl-methyl)-dimethylamine], the inhibition at 1 µM is reported as 97%. CC1CCCN(c2oc(C(CC3CCC(C(c4cccs4)N(C)C)CC3)N3CCCCC3)nc2Cc2ccccc2)C1 (stereo not drawn) [compound 111, [(4-{2-[4-benzyl-5-(3-methylpiperidin-1-yl)-oxazol-2-yl]-2-piperidin-1-yl-ethyl}-cyclohexyl)-thiophen-2-yl-methyl]-dimethylamine] was tested, and the inhibition at 1 µM was 92%. CCN(CC)C(CC1CCC(C(c2cccs2)N(C)C)CC1)c1nc(Cc2ccccc2)c(N2CC(C)CC(C)C2)o1 (stereo not drawn) [compound 112, {1-[4-benzyl-5-(3,5-dimethylpiperidin-1-yl)-oxazol-2-yl]-2-[4-(dimethylamino-thiophen-2-yl-methyl)-cyclohexyl]-ethyl}-diethylamine] was tested, and the inhibition at 1 µM was 89%. CCN(CC)C(CC1CCC(C(c2cccs2)N(C)C)CC1)c1nc(Cc2ccccc2)c(N(C)CCc2ccccc2)o1 (stereo not drawn) [compound 113, (4-benzyl-2-{1-diethylamino-2-[4-(dimethylaminothiophen-2-yl-methyl)-cyclohexyl]-ethyl}-oxazol-5-yl)-methylphenethylamine] gave an inhibition at 1 µM of 97%. In the case of CCN(CC)c1oc(C(CC2CCC(C(c3cccs3)N(C)C)CC2)N(CC)CC)nc1Cc1ccccc1 (stereo not drawn) [compound 114, (4-benzyl-2-{1-diethylamino-2-[4-(dimethylaminothiophen-2-yl-methyl)-cyclohexyl]-ethyl}-oxazol-5-yl)-diethylamine], the inhibition at 1 µM is reported as 94%. With CCN(CC)C(CC1CCC(C(c2cccs2)N(C)C)CC1)c1nc(Cc2ccccc2)c(N2CCSCC2)o1 (stereo not drawn) [compound 115, {1-(4-benzyl-5-thiomorpholin-4-yl-oxazol-2-yl)-2-[4-(dimethylamino-thiophen-2-yl-methyl)-cyclohexyl]-ethyl}-diethylamine] the inhibition at 1 µM was 93%. CCN(CC)C(CC1CCC(C(c2cccs2)N(C)C)CC1)c1nc(Cc2ccccc2)c(N2CCCC(C)C2)o1 (stereo not drawn) [compound 116, {1-[4-benzyl-5-(3-methylpiperidin-1-yl)-oxazol-2-yl]-2-[4-(dimethylamino-thiophen-2-yl-methyl)-cyclohexyl]-ethyl}-diethylamine] showed an inhibition at 1 µM of 94%. For CC1CCCN(c2oc(C(CC3CCC(C(c4cccs4)N(C)C)CC3)N(C)c3ccccc3)nc2Cc2ccccc2)C1 (stereo not drawn) [compound 117, {1-[4-benzyl-5-(3-methylpiperidin-1-yl)-oxazol-2-yl]-2-[4-(dimethylamino-thiophen-2-yl-methyl)-cyclohexyl]-ethyl}-methylphenylamine], the inhibition at 1 µM was 99%. Molecule CN(C)C(c1cccs1)C1CCC(CC(c2nc(Cc3ccccc3)c(N3CCSCC3)o2)N2CCN(Cc3ccccc3)CC2)CC1 (stereo not drawn) [compound 118, ({4-[2-(4-benzylpiperazin-1-yl)-2-(4-benzyl-5-thiomorpholin-4-yl-oxazol-2-yl)-ethyl]-cyclohexyl}-thiophen-2-yl-methyl)-dimethylamine] has an inhibition at 1 µM of 84%. For CC1CCCN(c2oc(C(CC3CCC(C(c4cccs4)N(C)C)CC3)N3CCN(Cc4ccccc4)CC3)nc2Cc2ccccc2)C1 (stereo not drawn) [compound 119, ({4-[2-[4-benzyl-5-(3-methylpiperidin-1-yl)-oxazol-2-yl]-2-(4-benzyl-piperazin-1-yl)-ethyl]-cyclohexyl}-thiophen-2-yl-methyl)-dimethylamine], the inhibition at 1 µM was 99%.
